Measurements from publication PMC6010102, “N-thioalkylcarbazoles derivatives as new anti-proliferative agents: synthesis, characterisation and molecular mechanism evaluation” (Journal of Enzyme Inhibition and Medicinal Chemistry, 2018).

What was measured:
[1] = system: MDA-MB-231 human breast cancer cells; assay: MTT cell viability, MDA-MB-231; type: cell-based; details: 72 h exposure, mean ± SD, read-out: Antiproliferative activity IC50, MDA-MB-231
Source text: (§1) The six cell lines used in this work were purchased from American Type Culture Collection (ATCC, Manassas, VA). MCF-7 human breast cancer cells, oestrogen receptor (ER) positives, were maintained in Dulbecco’s Modified Eagle’s Medium/Nutrient Mixture F-12 Ham (DMEM/F12), supplemented with 5% foetal bovine serum (FBS) and 100 U/ml penicillin/streptomycin, as previously described. MDA-MB-231, human breast cancer cells, oestrogen receptor (ER) negative, were maintained in Dulbecco’s Modified Eagle’s Medium/Nutrient Mixture F-12 Ham (DMEM/F12), supplemented with 5% Newborn Calf Serum (NCS) and 100 U/ml penicillin/streptomycin. HeLa human epithelial cervix carcinoma cells, oestrogen receptor (ER) negative, and ISHIKAWA human endometrial adenocarcinoma cell, oestrogen receptor positive, were maintained in minimum essential medium (MEM), supplemented with 10% FBS, 100 U/ml penicillin/streptomycin and 1% non-essential amino acid. 3T3-L1 cells line of murine fibroblasts of embryonic type, were maintained in DMEM, supplemented with 10% NCS and 100 U/ml penicillin/streptomycin. MCF-10A human mammary epithelial cells were cultured in DMEM/F12 medium, supplemented with 5% horse serum (HS) (Eurobio, Les Ullis, Cedex, France), 100 U/ml penicillin/streptomycin, […] hydrocortisone, 20 ng/ml hEGF (human epidermal growth factor), 10 μg/ml insulin and […] cholera enterotoxin (Sigma-Aldrich, Milano, Italy). Cells were maintained at 37 °C in a humidified atmosphere of 95% air and 5% CO2 and periodically screened for contamination.
(§2) MDA-MB-231, MCF-7, HeLa and ISHIKAWA cells were grown in complete medium and, before being treated, they were serum deprived for 24 h, to allow cell cycle synchronisation. Then cells were grown in phenol red-free medium supplemented with 1% DCC (destran-coated charcoal treated) FBS, then treated with increasing concentrations (0.1, 1, 10, 20, 40, 100 µM) of each compound for 72 h. Compounds were dissolved in dimethylsulphoxide (DMSO) (Sigma, St. Louis, MO) and diluted in each cell medium. Untreated cells, used as a control, were added with DMSO alone (final concentration 0.1%). Cell viability was assessed using the 3-[4,5-dimethylthiazol-2-yl]-2,5-diphenyltetrazolium bromide reagent (MTT), according to the protocol from manufacturer (Sigma-Aldrich, Milan, Italy), as previously described[37] ^, [38]. For each sample, the mean absorbance, measured at 570 nm, was expressed as a percentage of the control and plotted versus drug concentration to determine for each cell line the IC50 values (namely, drugs concentrations able to reduce cell viability of 50% with respect to the control), using GraphPad Prism 5 Software (GraphPad Inc., San Diego, CA)[39]. Each experiment was carried out in quadruplicate. Standard deviations (SD) were shown.

[2] = system: HeLa human epithelial cervix carcinoma cells; assay: MTT cell viability, HeLa; type: cell-based; details: 72 h exposure, mean ± SD, read-out: Antiproliferative activity IC50, HeLa
Source text: as §1, §2

[3] = system: MCF-7 human breast cancer cells; assay: MTT cell viability, MCF-7; type: cell-based; details: MCF7, 72 h exposure, mean ± SD, read-out: Antiproliferative activity IC50, MCF-7
Source text: as §1, §2

[4] = system: ISHIKAWA human endometrial adenocarcinoma cells; assay: MTT cell viability, ISHIKAWA; type: cell-based; details: 72 h exposure, mean ± SD, read-out: Antiproliferative activity IC50, ISHIKAWA
Source text: as §1, §2

[5] = system: MCF-10A human mammary epithelial cells; assay: MTT cell viability, MCF-10A; type: cell-based; details: non-tumoural cells, 72 h exposure, mean ± SD, read-out: Antiproliferative activity IC50, MCF-10a
Source text: as §1, §2

[6] = system: 3T3-L1 murine fibroblasts; assay: MTT cell viability, 3T3-L1; type: cell-based; details: Mus musculus, non-tumoural cells, 72 h exposure, mean ± SD, read-out: Antiproliferative activity IC50, 3T3-L1
Source text: as §1, §2

hTopoII = hTopoII (Homo sapiens, UniProt P11388); assay: Human topoisomerase II decatenation assay; type: biochemical; details: 50 µM, reference molecule
hTopoII, sequence (P11388 whole entry): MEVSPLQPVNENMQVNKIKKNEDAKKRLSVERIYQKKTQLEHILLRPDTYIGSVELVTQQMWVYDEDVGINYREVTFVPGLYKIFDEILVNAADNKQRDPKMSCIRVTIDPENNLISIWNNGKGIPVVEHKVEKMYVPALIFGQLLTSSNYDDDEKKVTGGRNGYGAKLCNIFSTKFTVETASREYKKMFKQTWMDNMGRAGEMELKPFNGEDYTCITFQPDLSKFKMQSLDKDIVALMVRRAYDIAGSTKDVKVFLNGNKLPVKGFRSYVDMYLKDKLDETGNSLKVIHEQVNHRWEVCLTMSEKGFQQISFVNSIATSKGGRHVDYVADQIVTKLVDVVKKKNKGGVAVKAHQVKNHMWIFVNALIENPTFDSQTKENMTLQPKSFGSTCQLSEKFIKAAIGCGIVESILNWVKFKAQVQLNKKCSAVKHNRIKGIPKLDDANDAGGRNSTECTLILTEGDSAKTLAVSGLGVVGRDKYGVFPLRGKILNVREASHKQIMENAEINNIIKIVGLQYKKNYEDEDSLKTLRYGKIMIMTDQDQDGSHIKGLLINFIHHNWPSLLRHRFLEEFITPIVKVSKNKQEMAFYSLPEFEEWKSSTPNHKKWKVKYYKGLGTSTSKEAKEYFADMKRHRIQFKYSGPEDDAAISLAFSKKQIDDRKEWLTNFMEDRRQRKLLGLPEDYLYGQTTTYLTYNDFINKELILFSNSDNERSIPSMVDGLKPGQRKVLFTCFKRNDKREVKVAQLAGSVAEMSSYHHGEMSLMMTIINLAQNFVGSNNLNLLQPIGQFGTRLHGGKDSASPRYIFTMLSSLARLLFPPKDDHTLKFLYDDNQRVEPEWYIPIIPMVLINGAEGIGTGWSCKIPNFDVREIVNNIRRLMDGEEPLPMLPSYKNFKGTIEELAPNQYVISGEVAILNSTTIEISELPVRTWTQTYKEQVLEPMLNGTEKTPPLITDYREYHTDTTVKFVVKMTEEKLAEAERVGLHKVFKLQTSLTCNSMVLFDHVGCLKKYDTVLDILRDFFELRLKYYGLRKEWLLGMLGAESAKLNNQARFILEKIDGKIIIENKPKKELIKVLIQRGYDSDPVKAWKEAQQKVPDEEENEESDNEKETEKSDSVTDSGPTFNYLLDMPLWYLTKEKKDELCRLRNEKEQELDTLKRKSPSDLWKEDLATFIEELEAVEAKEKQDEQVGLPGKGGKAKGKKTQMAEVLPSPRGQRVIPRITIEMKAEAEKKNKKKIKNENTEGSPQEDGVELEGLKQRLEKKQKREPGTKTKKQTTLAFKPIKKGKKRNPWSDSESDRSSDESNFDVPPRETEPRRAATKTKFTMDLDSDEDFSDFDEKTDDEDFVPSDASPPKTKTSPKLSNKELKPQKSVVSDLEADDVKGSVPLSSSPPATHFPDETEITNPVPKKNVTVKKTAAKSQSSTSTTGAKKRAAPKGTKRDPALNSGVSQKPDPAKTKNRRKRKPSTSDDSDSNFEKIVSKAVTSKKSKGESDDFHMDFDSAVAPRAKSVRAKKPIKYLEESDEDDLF
Method: Human topoisomerase II decatenation assay: hTopoII decatenation assays were performed as reported in Iacopetta et al.[8].
Figure 2. hTopoII inhibition assay. kDNA was incubated with human Topoisomerase II in the absence (lane C, vehicle DMSO) or presence of compound 5c (lane 5c) or Ellipticine (lane E) at 10 and 50 µM, respectively. Lane K, kinetoplast DNA (kDNA).

SMILES | IC50 [1] [µM] | IC50 [2] [µM] | IC50 [3] [µM] | IC50 [4] [µM] | IC50 [5] [µM] | IC50 [6] [µM] | hTopoII inhibition (kDNA decatenation) (hTopoII)
SCCCCCCCn1c2ccccc2c2ccccc21 [5a, 7-(9H-Carbazol-9-yl)heptane-1-thiol] | 39.9 ± 0.52 | 12.8 ± 0.62 | 50.4 ± 0.96 | 19.2 ± 1.13 | > 100 | > 100 | 
Cc1ccc2c(c1)c1c(C)ccc(C)c1n2CCCCCCCS [5b, 7-(1,4,6-Trimethyl-9H-carbazol-9-yl)-heptane-1-thiol] | > 100 | > 100 | > 100 | > 100 | > 100 | > 100 | 
SCCCCCCCCn1c2ccccc2c2ccccc21 [6a, 8-(9H-Carbazol-9-yl)octane-1-thiol] | > 100 | > 100 | > 100 | > 100 | > 100 | > 100 | 
Cc1ccc2c(c1)c1c(C)ccc(C)c1n2CCCCCCCCS [6b, 8-(1,4,6-Trimethyl-9H-carbazol-9-yl)-octane-1-thiol] | > 100 | > 100 | > 100 | > 100 | > 100 | > 100 | 
Cc1ccc(C)c2c1c1cc(Br)ccc1n2CCCCCCCCS [6c, 8-(6-Bromo-1,4-dimethyl-9H-carbazol-9-yl)-octane-1-thiol] | > 100 | > 100 | > 100 | > 100 | > 100 | > 100 | 
SCCCCCCCCCn1c2ccccc2c2ccccc21 [7a, 9-(9H-Carbazol-9-yl)nonane-1-thiol] | > 100 | > 100 | > 100 | > 100 | > 100 | > 100 | 
Cc1ccc2c(c1)c1c(C)ccc(C)c1n2CCCCCCCCCS [7b, 9-(1,4,6-Trimethyl-9H-carbazol-9-yl)-nonane-1-thiol] | > 100 | > 100 | > 100 | > 100 | > 100 | > 100 | 
Cc1ccc(C)c2c1c1cc(Br)ccc1n2CCCCCCCCCS [7c, 9-(6-Bromo-1,4-dimethyl-9H-carbazol-9-yl)-nonane-1-thiol] | > 100 | > 100 | > 100 | > 100 | > 100 | > 100 | 
Cc1c2ccncc2c(C)c2c1[nH]c1ccccc12 [Ellipticine, reference compound] | 1.85 ± 0.15 | 1.05 ± 0.5 | 1.25 ± 0.3 | 1.7 ± 0.8 | 1.2 ± 0.2 | 0.98 ± 0.7 | complete inhibition
